The values below come from patent US4855324A, “Furyl, phenylene, and thienyl leukotriene B4 analogues” (G. D. Searle & Co., priority 1988, dated 1989).

The nature of assay [1]: Boyden Chamber Inhibition (as Antagonist). The conditions noted are these: at 10^-5 (concentration unit not given). In kind it is cell-based.
A further assay deals with Human Neutrophil. Nature of the assay: Human Neutrophil Degranulation Assay (LTB4 induced, myeloperoxidase release). It is filed as cell-based. The conditions noted are these: LTB4 5×10^-8 M, cytochalasin B, 37°C, read-out: Inhibition of LTB4 Induced Neutrophil Degranulation IC50. The text has this:
For use in both the "LTB4 receptor Binding Assay" and the "human Neutrophil Degranulation Assay", neutrophils were purified from venous blood of normal human donors using standard techniques of dextran sedimentaion, centrifugation on Histopaque^2 (density solution) and hypotonic lysis of erythrocytes (Boyum, A., Isolation of Leukocytes From Human Blood: Further Observations. Scand. J. Lab. Clin. Inves. 21 (Suppl. 97): 31, 1968). The purity of isolated neutrophilis was ≥95%.
LTB4 induced neutrophil degranulation was determined by measuring the release of myeloperoxidase activity into the incubation medium. Neturophils (3 ×10^6) in 1ml HBSS solution were preincubated with cytochalasin B(5μg) at 37°C. for 5 minutes, followed by preincubation with test compounds for 7 minutes. Neutrophils were then incubated for 2 to 20 minutes with either LTB4 (5 ×10^- 8M) or the chemotatic peptide f-met-leu-phe (5 ×10^- 6M) to induce degranulation. Following incubation, samples were centrifuged and myeloperoxidase was extracted from the cell pellets by sonication in phoshpate buffer containing 0.4% Triton X-100. Triton X-100 was also added to the supernatents to a concentration of 0.4%. The supernatants and the pellet extracts were then assayed spectrophotometrically for myeloperoxide activity by determining the rate of decomposition of H2 O2 withh o-dianisidine as hydrogen donor as described by Renlund, D. G., MacFarlane, J. L., Christensen, R. D., Lynch, R. E., and Rothstein, G., A Quantitative And Sensitive Method For Measurement Of Myeloperoxidase, Clinical Research 28:75A, 1980). Myeloperoxidase activity released into the supernatant was expressed as the percent of the average total activity (pellet plus supernatant).
The inhibition of LTB4 induced neutrophil degranulation was determined for representative compounds of this invention and their corresponding IC50 values were calculated (Table 1). The concentration of a compound which inhibited LTB4 induced neutrophil degranulation by 50% was determined to be its IC50 value.

For the next assay, the target named is T1, LTB4 receptors (Homo sapiens, UniProt Q15722).
T1 construct: neutrophils were purified from venous blood of normal human donors; endogenous in cells; host or cells: human neutrophils purified from venous blood of normal donors
T1 sequence (Q15722 whole entry): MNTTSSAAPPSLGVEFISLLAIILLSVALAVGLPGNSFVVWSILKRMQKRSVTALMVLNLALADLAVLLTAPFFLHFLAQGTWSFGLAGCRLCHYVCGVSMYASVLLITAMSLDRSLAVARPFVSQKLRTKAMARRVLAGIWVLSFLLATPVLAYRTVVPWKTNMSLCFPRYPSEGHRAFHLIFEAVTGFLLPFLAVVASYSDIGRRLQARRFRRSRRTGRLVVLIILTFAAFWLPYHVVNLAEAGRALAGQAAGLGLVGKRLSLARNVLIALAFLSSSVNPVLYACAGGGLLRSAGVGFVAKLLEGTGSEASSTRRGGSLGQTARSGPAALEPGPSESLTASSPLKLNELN
Nature of the assay: LTB4 Receptor Binding Assay (inhibition of specific (3H) LTB4 binding to neutrophils). The conditions noted are these: 0.6nM (3H) LTB4, human neutrophils, 0°C, 45 minutes, pH 7.4. The method, then:
Neutrophils (4-6×10^6) in 1ml of Hanks' balanced salt solution containing 10mM Hepes Buffer (HBSS), pH 7.4 and 30 μM nordihydroguaiaretic acid were incubated with 0.6nM (^3 H) LTB4 in the presence or absence of test compounds. The incubation was carried out at 0°C. for 45 minutes and terminated by adding 5ml of ice-cold HBSS followed by rapid filtration of incubation mixture under vacuum through GF/C glass fiber filters. The filters were further washed with 10ml HBSS and their radioactivity determined. Specific binding was defined as the difference between total binding and nonspecific binding which was not displaced by 10^- 7M unlabeled LTB4.

The structures appear in SMILES notation.

Consider `CCCCCCCCC(O)/C=C/C=C/c1ccccc1C(=O)CCCC(=O)O` (stereo not drawn), for which the “Boyden Chamber Inhibition at 10^-5 (as Antagonist)” value (“Boyden Chamber Inhibition” for short) in assay [1] came to 8%. Moreover, the IC50 was determined as 1 µM with Human Neutrophil and 3 µM at LTB4 receptors.

As for `CCCCCCCCC(O)/C=C/C=C/c1ccc(C(=O)CCCC(=O)O)s1` (stereo not drawn), in assay [1], the “Boyden Chamber Inhibition” value came out at 30%. The IC50 worked out at 1.8 µM with Human Neutrophil and 4.1 µM at LTB4 receptors.

Turning to `CCCCCCCCC(O)/C=C/C=C/c1ccc(C(O)CCCC(=O)O)s1` (stereo not drawn), the “Boyden Chamber Inhibition” value in assay [1] is recorded as 33%. Besides, the IC50 in the assay on Human Neutrophil came out at 5.2 µM; on LTB4 receptors, 6.3 µM.

In general, IC50 refers to the point on the concentration scale where inhibition reaches its midpoint.
